US20150105252A1, “SUBSTITUTED PYRAZOLES AS HERBICIDES” (E I DU PONT DE NEMOURS AND COMPANY, priority 2013, published 2015)

Columns and labels:
common ragweed [1] = assay: Test A preemergence; type: in vivo, Ambrosia elation
Excerpt: (§1) Seeds of plant species selected from barnyardgrass (Echinochloa crus-galli), kochia (Kochia scoparia), common ragweed (Ambrosia elation), Italian ryegrass (Lolium multiflorum), crabgrass, large (large crabgrass, Digitaria sanguinalis), foxtail, giant (giant foxtail, Setaria faberii), morningglory (Ipomoea spp.), pigweed (redroot pigweed, Amaranthus retroflexus), velvetleaf (Abutilon theophrasti), wheat (Triticum aestivum), and corn (Zea mays) were planted into a blend of loam soil and sand and treated preemergence with a directed soil spray using test chemicals formulated in a non-phytotoxic solvent mixture which included a surfactant.
(§2) At the same time, plants selected from these crop and weed species and also blackgrass (Alopecurus myosuroides), and galium (catchweed bedstraw, Galium aparine) were planted in pots containing the same blend of loam soil and sand and treated with postemergence applications of test chemicals formulated in the same manner. Plants ranged in height from 2 to 10 cm and were in the one- to two-leaf stage for the postemergence treatment. Treated plants and untreated controls were maintained in a greenhouse for approximately 10 days, after which time all treated plants were compared to untreated controls and visually evaluated for injury. Plant response ratings, summarized in Table A, are based on a 0 to 100 scale where 0 is no effect and 100 is complete control. A dash (-) response means no test result.

Italian ryegrass [2] = assay: Test A preemergence; type: in vivo, Lolium multiflorum
Excerpt: as §1, §2

galium = assay: Test A postemergence; type: in vivo, Galium aparine
Excerpt: as §1, §2

corn = assay: Test A postemergence; type: in vivo, Zea mays
How it was run: (§3)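 Seeds were sown in a loam soil–sand blend and given a directed soil spray preemergence; postemergence plants at 2–10 cm, one- to two-leaf stage, were sprayed with compound in non-phytotoxic solvent with surfactant. After about 10 days in a greenhouse, injury was visually rated against untreated controls (0 = no effect, 100 = complete control).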

wheat = assay: Test A postemergence; type: in vivo, Triticum aestivum
How it was run: as §3

barnyardgrass [3] = assay: Test A preemergence; type: in vivo, Echinochloa crus-galli; conditions: preemergence
How it was run: as §3

pigweed [4] = assay: Test A preemergence; type: in vivo, Amaranthus retroflexus; conditions: preemergence
How it was run: as §3

barnyardgrass [5] = assay: Test A postemergence; type: in vivo, Echinochloa crus-galli
How it was run: as §3

Italian ryegrass [6] = assay: Test A postemergence; type: in vivo, Lolium multiflorum
Excerpt: as §1, §2

foxtail, giant [7] = assay: Test A preemergence; type: in vivo, Setaria faberii; conditions: preemergence
How it was run: as §3

barnyardgrass [8] = assay: Test B flood; type: in vivo, Echinochloa crus-galli; conditions: 250 g ai/ha, visual rating on 0 to 100 scale (0 no effect, 100 complete control), 13 to 15 days
How it was run: (§4)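 Two-leaf-stage plants, pots flooded (3 cm above soil) and treated through the water, which stayed at that depth. After 13–15 days in greenhouse conditions, visual assessment versus controls: 0 is no effect, 100 complete control, dash means no result.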

sedge, umbrella = assay: Test B flood; type: in vivo, Cyperus difformis; conditions: 250 g ai/ha, visual rating on 0 to 100 scale (0 no effect, 100 complete control), 13 to 15 days
How it was run: as §4

rice = assay: Test B flood; type: in vivo, Oryza sativa; conditions: 250 g ai/ha, visual rating on 0 to 100 scale (0 no effect, 100 complete control), 13 to 15 days
How it was run: as §4

foxtail, giant [9] = assay: Test A postemergence; type: in vivo, Setaria faberii
How it was run: as §3

kochia [10] = assay: Test A postemergence; type: in vivo, Kochia scoparia
Excerpt: as §1, §2

blackgrass = assay: Test A postemergence; type: in vivo, Alopecurus myosuroides
Excerpt: as §1, §2

pigweed [11] = assay: Test A postemergence; type: in vivo, Amaranthus retroflexus
How it was run: as §3

kochia [12] = assay: Test A preemergence; type: in vivo, Kochia scoparia
Excerpt: as §1, §2

ducksalad = assay: Test B flood; type: in vivo, Heteranthera limosa; conditions: 250 g ai/ha, visual rating on 0 to 100 scale (0 no effect, 100 complete control), 13 to 15 days
How it was run: as §4

common ragweed [13] = assay: Test A postemergence; type: in vivo, Ambrosia elation
Excerpt: as §1, §2

[14] = 125 g ai/ha, visual injury, 0 to 100 scale, approx. 10 days
[15] = 500 g ai/ha, visual injury after approx. 10 days, 0 to 100 scale (0 no effect, 100 complete control)
[16] = Postemergence, 500 g ai/ha, 0 to 100 scale (0 no effect, 100 complete control)
[17] = postemergence, 125 g ai/ha, about 10 days, visual rating on 0 to 100 scale (0 no effect, 100 complete control)

| SMILES | Common Ragweed plant response rating (common ragweed [1]; [14]) | Italian Ryegrass plant response rating (Italian ryegrass [2]; [14]) | Italian Ryegrass plant response rating (Italian ryegrass [2]; [15]) | Galium plant response rating (galium; [16]) | Galium plant response rating (galium; [17]) | Corn plant response rating (corn; [16]) | Corn plant response rating (corn; [17]) | Wheat plant response rating (wheat; [16]) | Wheat plant response rating (wheat; [17]) | Barnyardgrass plant response rating (barnyardgrass [3]; [14]) | Barnyardgrass plant response rating (barnyardgrass [3]; [15]) | Pigweed plant response rating (pigweed [4]; [14]) | Pigweed plant response rating (pigweed [4]; [15]) | Barnyardgrass plant response rating (barnyardgrass [5]; [16]) | Barnyardgrass plant response rating (barnyardgrass [5]; [17]) | Italian Ryegrass plant response rating (Italian ryegrass [6]; [16]) | Italian Ryegrass plant response rating (Italian ryegrass [6]; [17]) | Foxtail, Giant plant response rating (foxtail, giant [7]; [14]) | Foxtail, Giant plant response rating (foxtail, giant [7]; [15]) | Plant response rating, Barnyardgrass (barnyardgrass [8]) | other results |
| --- | --- | --- | --- | --- | --- | --- | --- | --- | --- | --- | --- | --- | --- | --- | --- | --- | --- | --- | --- | --- | --- |
| CCCNC(=O)c1cc(CC)n(Cc2cc(C(F)(F)F)no2)n1 [Compound 122] | 10 | 0 | 30 | 70 | 10 | 60 | 20 | 10 | 0 | 0 | 100 | 60 | 100 | 70 | 0 | 50 | 10 | 20 | 100 | 20 | Plant response rating, Sedge, Umbrella (sedge, umbrella): 50; Plant response rating, Rice (rice): 30; Foxtail, Giant plant response rating (foxtail, giant [9]; [16]): 90; Foxtail, Giant plant response rating (foxtail, giant [9]; [17]): 0; Kochia plant response rating (kochia [10]; [16]): 90; Kochia plant response rating (kochia [10]; [17]): 50; Blackgrass plant response rating (blackgrass; [16]): 80; Blackgrass plant response rating (blackgrass; [17]): 10; Pigweed plant response rating (pigweed [11]; [16]): 40; Pigweed plant response rating (pigweed [11]; [17]): 30; Kochia plant response rating (kochia [12]; [14]): 10; Kochia plant response rating (kochia [12]; [15]): 90; Plant response rating, Ducksalad (ducksalad): 50; Common Ragweed plant response rating (common ragweed [13]; [16]): 30; Common Ragweed plant response rating (common ragweed [13]; [17]): 10 |
| CCCNC(=O)c1cc(CC)n(Cc2cc(OC(F)F)nn2C)n1 [Compound 134] | 10 | 0 | 10 | 70 | 30 | 30 | 10 | 10 | 0 | 0 | 90 | 20 | 100 | 30 | 10 | 10 | 0 | 20 | 100 | 0 | Common Ragweed plant response rating (common ragweed [1]; [15]): 80; Plant response rating, Sedge, Umbrella (sedge, umbrella): 0; Plant response rating, Rice (rice): 0; Foxtail, Giant plant response rating (foxtail, giant [9]; [16]): 70; Foxtail, Giant plant response rating (foxtail, giant [9]; [17]): 10; Kochia plant response rating (kochia [10]; [16]): 90; Kochia plant response rating (kochia [10]; [17]): 60; Blackgrass plant response rating (blackgrass; [16]): 50; Blackgrass plant response rating (blackgrass; [17]): 10; Pigweed plant response rating (pigweed [11]; [16]): 90; Pigweed plant response rating (pigweed [11]; [17]): 40; Kochia plant response rating (kochia [12]; [14]): 80; Kochia plant response rating (kochia [12]; [15]): 100; Plant response rating, Ducksalad (ducksalad): 0; Common Ragweed plant response rating (common ragweed [13]; [16]): 30; Common Ragweed plant response rating (common ragweed [13]; [17]): 20 |
| CCCCNC(=O)c1cc(CC)n(Cc2cc(OC(F)F)nn2C)n1 [Compound 135] | 0 | 0 | 0 | 50 | 20 | 20 | 10 | 0 | 0 | 0 | 0 | 0 | 50 | 10 | 10 | 0 | 0 | 0 | 50 | 0 | Common Ragweed plant response rating (common ragweed [1]; [15]): 0; Plant response rating, Sedge, Umbrella (sedge, umbrella): 0; Plant response rating, Rice (rice): 0; Foxtail, Giant plant response rating (foxtail, giant [9]; [16]): 10; Foxtail, Giant plant response rating (foxtail, giant [9]; [17]): 0; Kochia plant response rating (kochia [10]; [16]): 100; Kochia plant response rating (kochia [10]; [17]): 70; Blackgrass plant response rating (blackgrass; [16]): 20; Blackgrass plant response rating (blackgrass; [17]): 0; Pigweed plant response rating (pigweed [11]; [16]): 40; Pigweed plant response rating (pigweed [11]; [17]): 10; Kochia plant response rating (kochia [12]; [14]): 70; Kochia plant response rating (kochia [12]; [15]): 100; Plant response rating, Ducksalad (ducksalad): 0; Common Ragweed plant response rating (common ragweed [13]; [16]): 30; Common Ragweed plant response rating (common ragweed [13]; [17]): 10 |
| CCc1cc(C(=O)NC(C)C)nn1Cc1cc(OC(F)F)nn1C [Compound 137] | 10 | 0 | 40 | 80 | 50 | 30 | 10 | 10 | 0 | 10 | 70 | 60 | 100 | 60 | 0 | 20 | 0 | 20 | 80 | 0 | Common Ragweed plant response rating (common ragweed [1]; [15]): 100; Plant response rating, Sedge, Umbrella (sedge, umbrella): 30; Plant response rating, Rice (rice): 0; Foxtail, Giant plant response rating (foxtail, giant [9]; [16]): 70; Foxtail, Giant plant response rating (foxtail, giant [9]; [17]): 10; Kochia plant response rating (kochia [10]; [16]): 90; Kochia plant response rating (kochia [10]; [17]): 50; Blackgrass plant response rating (blackgrass; [16]): 50; Blackgrass plant response rating (blackgrass; [17]): 10; Pigweed plant response rating (pigweed [11]; [16]): 80; Pigweed plant response rating (pigweed [11]; [17]): 50; Kochia plant response rating (kochia [12]; [14]): 30; Kochia plant response rating (kochia [12]; [15]): 100; Plant response rating, Ducksalad (ducksalad): 30; Common Ragweed plant response rating (common ragweed [13]; [16]): 30; Common Ragweed plant response rating (common ragweed [13]; [17]): 10 |
